Measured values reported in US10689378B2, “Triazolopyridine compounds and uses thereof” (Novartis AG, priority 2016, dated 2020).
Read-outs that look alike come from different tables or passages of the source.

Legend:
[1] = test system: H3K27 methylation in G401 cell; assay: ELISA (H3K27 methylation) assay in G401 cells; format: cell-based, human; details: Homo sapiens
In short: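 G401 cells treated 48 h with 3-fold dilutions (8 or 12 points, top 20 μM). Acid-extracted histones probed by ELISA for H3K27me3 or H3K27me2 with ECL readout, normalized to total H3. Percent inhibition versus DMSO fitted to dose-response curve for IC50.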

EED (1-441)-His protein = target: T1, EED (1-441)-His protein (Homo sapiens, UniProt O75530); assay: EED-H3K27Me3 peptide competition binding assay by AlphaScreen
T1 construct: 30 nM EED (1-441)-His protein
In short: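 Serially diluted compound (12 points, 3-fold) incubated 20 min with 30 nM EED(1-441)-His and 15 nM biotin-H3K27Me3(19-33) peptide in 25 mM HEPES pH 8, 0.02% Tween-20, 0.5% BSA. Ni-chelate acceptor/streptavidin donor beads (10 μg/mL each) added, 1 h rt dark; 615 nm emission normalized to controls, dose-response fit for IC50.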

[2] = target: wild type PRC2 (wtPRC2) complex (Homo sapiens, UniProt O75530); assay: EED LC-MS assay (SAH production by PRC2); format: biochemical
In short: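 Pentameric PRC2 (EZH2, SUZ12, EED, Rbap48, AEBP), 12 nM final, preincubated 20 min with compound and SAM, then 1.5 μM biotinylated H3K27me0 peptide, 1 μM SAM, pH 8.0, 120 min at rt. SAH quantified by LC-MS/MS with d4-SAH; control-normalized activity fitted for IC50.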

[3] = G-401, H3K27 methylation ELISA, read-out: (c) IC50 ELISA Qualified
[4] = EED-H3K27Me3 peptide competition, AlphaScreen, read-out: (a) IC50 EED Alphascreen binding Qualified
[5] = PRC2 LC-MS assay, read-out: (b) IC50 EED LC-MS Qualified
[6] = G-401, read-out: (c) IC50, ELISA Qualified
[7] = read-out: (a) IC50, EED Alphascreen binding Qualified
[8] = read-out: (b) IC50, EED LC-MS Qualified

T1 sequence (O75530 whole entry): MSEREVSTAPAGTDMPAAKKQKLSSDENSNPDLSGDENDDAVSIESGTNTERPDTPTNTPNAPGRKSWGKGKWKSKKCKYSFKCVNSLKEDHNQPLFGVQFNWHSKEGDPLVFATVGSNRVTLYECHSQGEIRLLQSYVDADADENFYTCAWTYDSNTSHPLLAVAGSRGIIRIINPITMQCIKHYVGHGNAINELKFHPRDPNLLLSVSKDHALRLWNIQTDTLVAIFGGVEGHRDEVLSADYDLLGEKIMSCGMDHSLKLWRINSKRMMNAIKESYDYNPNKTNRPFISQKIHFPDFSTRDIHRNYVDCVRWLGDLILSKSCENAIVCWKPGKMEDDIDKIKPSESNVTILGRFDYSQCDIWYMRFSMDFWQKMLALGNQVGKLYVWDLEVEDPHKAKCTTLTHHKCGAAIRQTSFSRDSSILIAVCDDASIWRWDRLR
Sequence of wild type PRC2 (wtPRC2) complex (O75530 whole entry): as above
Sequence of wild type PRC2 (wtPRC2) complex (Q15910 whole entry partner): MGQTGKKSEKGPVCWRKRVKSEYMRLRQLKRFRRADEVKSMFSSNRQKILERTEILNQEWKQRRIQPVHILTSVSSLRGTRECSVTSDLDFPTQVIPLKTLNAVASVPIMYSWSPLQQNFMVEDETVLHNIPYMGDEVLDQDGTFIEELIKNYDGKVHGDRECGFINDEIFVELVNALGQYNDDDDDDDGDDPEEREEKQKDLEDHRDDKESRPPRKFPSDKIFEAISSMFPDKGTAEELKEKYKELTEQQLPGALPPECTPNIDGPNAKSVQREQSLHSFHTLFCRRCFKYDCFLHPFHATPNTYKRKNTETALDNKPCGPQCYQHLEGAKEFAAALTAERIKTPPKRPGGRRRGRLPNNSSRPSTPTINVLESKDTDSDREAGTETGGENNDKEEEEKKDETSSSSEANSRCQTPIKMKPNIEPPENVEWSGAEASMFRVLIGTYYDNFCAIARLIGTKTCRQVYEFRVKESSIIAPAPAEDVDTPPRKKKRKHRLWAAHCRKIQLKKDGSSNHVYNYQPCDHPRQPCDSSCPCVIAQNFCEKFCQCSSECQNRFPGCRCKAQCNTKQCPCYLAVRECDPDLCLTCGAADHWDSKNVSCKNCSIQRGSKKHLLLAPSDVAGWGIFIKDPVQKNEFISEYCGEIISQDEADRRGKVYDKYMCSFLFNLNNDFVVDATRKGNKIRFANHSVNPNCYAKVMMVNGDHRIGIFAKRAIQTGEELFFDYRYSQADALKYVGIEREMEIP
Sequence of wild type PRC2 (wtPRC2) complex (Q15022 whole entry partner): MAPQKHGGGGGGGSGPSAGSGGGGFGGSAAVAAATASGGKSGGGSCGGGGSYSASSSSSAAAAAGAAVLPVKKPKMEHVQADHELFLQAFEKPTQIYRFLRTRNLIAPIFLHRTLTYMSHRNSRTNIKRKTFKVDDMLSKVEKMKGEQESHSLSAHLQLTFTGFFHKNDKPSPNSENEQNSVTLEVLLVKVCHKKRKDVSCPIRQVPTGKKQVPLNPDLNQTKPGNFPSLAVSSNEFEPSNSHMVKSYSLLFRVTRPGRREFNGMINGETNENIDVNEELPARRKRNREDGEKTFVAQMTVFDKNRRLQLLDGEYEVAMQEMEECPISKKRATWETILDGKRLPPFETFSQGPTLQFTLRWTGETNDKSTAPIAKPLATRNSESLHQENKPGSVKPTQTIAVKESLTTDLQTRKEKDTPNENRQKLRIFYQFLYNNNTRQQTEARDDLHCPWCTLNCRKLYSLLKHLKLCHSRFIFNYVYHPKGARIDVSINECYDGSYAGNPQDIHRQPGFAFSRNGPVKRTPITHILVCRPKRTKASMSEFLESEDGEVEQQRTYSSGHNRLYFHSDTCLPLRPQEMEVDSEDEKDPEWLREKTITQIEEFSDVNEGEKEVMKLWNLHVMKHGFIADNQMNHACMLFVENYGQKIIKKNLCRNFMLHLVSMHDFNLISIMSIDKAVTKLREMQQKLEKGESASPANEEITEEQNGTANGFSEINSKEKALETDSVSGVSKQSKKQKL
Sequence of wild type PRC2 (wtPRC2) complex (Q09028 whole entry partner): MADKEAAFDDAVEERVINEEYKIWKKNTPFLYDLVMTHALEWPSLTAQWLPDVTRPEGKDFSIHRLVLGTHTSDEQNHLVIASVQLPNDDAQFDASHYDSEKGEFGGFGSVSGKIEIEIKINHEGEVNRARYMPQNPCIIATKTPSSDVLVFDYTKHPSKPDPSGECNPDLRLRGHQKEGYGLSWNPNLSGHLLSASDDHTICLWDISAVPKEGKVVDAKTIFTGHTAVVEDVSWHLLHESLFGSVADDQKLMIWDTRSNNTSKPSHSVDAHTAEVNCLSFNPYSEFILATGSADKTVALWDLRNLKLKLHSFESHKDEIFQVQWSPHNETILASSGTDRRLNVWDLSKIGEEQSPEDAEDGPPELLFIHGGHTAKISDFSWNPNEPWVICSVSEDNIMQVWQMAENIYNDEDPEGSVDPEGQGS
Sequence of wild type PRC2 (wtPRC2) complex (Q6ZN18 whole entry partner): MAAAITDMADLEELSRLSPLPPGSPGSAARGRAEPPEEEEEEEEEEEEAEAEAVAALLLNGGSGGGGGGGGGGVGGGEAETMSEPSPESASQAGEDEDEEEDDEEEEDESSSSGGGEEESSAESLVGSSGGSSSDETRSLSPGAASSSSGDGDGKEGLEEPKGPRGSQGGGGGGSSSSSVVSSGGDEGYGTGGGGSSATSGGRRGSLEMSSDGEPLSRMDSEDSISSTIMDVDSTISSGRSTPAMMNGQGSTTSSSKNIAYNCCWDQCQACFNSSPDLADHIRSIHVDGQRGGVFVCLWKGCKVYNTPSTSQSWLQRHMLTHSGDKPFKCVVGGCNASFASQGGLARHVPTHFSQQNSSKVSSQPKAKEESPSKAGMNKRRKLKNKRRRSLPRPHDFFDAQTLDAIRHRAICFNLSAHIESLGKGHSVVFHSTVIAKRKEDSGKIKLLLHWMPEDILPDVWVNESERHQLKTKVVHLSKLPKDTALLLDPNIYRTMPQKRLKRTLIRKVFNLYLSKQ

Compound	IC50 [1, 3] [nM]	IC50 (EED (1-441)-His protein; [4]) [nM]	IC50 [2, 5] [nM]	IC50 [1, 6] [nM]	IC50 (EED (1-441)-His protein; [7]) [nM]	IC50 [2, 8] [nM]
COc1cccc(F)c1CNc1ccc(-c2cc(Cl)cnc2C)c2nncn12 [Example 326, 8-(5-chloro-2-methylpyridin-3-yl)-N-(2-fluoro-6-methoxybenzyl)-[1,2,4]triazolo[4,3-a] pyridin-5-amine]	29.8	26.1	71.6	–	–	–
COc1cccc(F)c1CNc1ccc(-c2ccc(S(C)(=O)=O)cc2)c2nncn12 [Example 78, N-(2-fluoro-6-methoxybenzyl)-8-(4-(methylsulfonyl)phenyl)-[1,2,4]triazolo[4,3-a]pyridin-5-amine]	–	–	–	26.1	18	75.1
COc1ccccc1CNc1ccc(-c2ccc(Cn3ccnc3)cc2)c2nncn12 [Example 76, 8-(4-((1H-imidazol-1-yl)methyl)phenyl)-N-(2-methoxybenzyl)-[1,2,4] triazolo[4,3-a]pyridin-5-amine]	–	–	–	133	41.9	420
COc1cccc(F)c1CNc1ccc(-c2cnc(F)cc2C)c2nncn12 [Example 248, 8-(6-fluoro-4-methylpyridin-3-yl)-N-(2-fluoro-6-methoxybenzyl)-[1,2,4]triazolo[4,3-a] pyridin-5-amine]	9.6	16.5	81.8	–	–	–
COc1cccc(F)c1CNc1ccc(-c2ccc(C#N)nc2C)c2nncn12 [Example 250, 5-(5-((2-fluoro-6-methoxybenzyl)amino)-[1,2,4]triazolo[4,3-a]pyridin-8-yl)-6-methylpicolinonitrile]	6.5	14.3	20.2	–	–	–
COc1cccc(F)c1CNc1ccc(-c2cccnc2Cl)c2nncn12 [Example 213, 8-(2-chloropyridin-3-yl)-N-(2-fluoro-6-methoxybenzyl)-[1,2,4]triazolo[4,3-a]pyridin-5-amine]	16.5	20.5	20	–	–	–
CCc1ccncc1-c1ccc(NCc2c(F)cccc2OC)n2cnnc12 [Example 272, 8-(4-ethylpyridin-3-yl)-N-(2-fluoro-6-methoxybenzyl)-[1,2,4]triazolo[4,3-a]pyridin-5-amine]	61.8	34.7	57.5	–	–	–
COc1cccc(F)c1CNc1ccc(-c2ccc(S(=O)(=O)NCCO)cc2)c2nncn12 [Example 126, 4-(5-((2-fluoro-6-methoxybenzyl)amino)-[1,2,4]triazolo[4,3-a]pyridin-8-yl)-N-(2-hydroxyethyl) benzenesulfonamide]	–	–	–	5	11.5	1740
COc1cccc(F)c1CNc1ccc(-c2c[nH]nc2C)c2nncn12 [Example 189, N-(2-fluoro-6-methoxybenzyl)-8-(3-methyl-1H-pyrazol-4-yl)-[1,2,4] triazolo[4,3-a]pyridin-5-amine]	56.4	53.6	71.1	–	–	–
COc1cccc(F)c1CNc1ccc(-c2c(Cl)ccnc2C)c2nncn12 [Example 338, 8-(4-chloro-2-methylpyridin-3-yl)-N-(2-fluoro-6-methoxybenzyl)-[1,2,4]triazolo[4,3-a] pyridin-5-amine]	16.2	7.4	42.1	–	–	–
COc1cccc(F)c1CNc1ccc(-c2ccc(NC(C)=O)nc2)c2nncn12 [Example 196, N-(5-(5-((2-fluoro-6-methoxybenzyl)amino)-[1,2,4]triazolo[4,3-a]pyridin-8-yl)pyridin-2-yl)acetamide]	43.8	25.3	164	–	–	–
COc1cc(F)cc(F)c1CNc1ccc(-c2cccnc2)c2nncn12 [Example 220, N-(2,4-difluoro-6-methoxybenzyl)-8-(pyridin-3-yl)-[1,2,4]triazolo[4,3-a]pyridin-5-amine]	55.6	46	142	–	–	–
COc1cccc(F)c1CNc1ccc(-c2cccnc2)c2nncn12 [Example 114, N-(2-fluoro-6-methoxybenzyl)-8-(pyridin-3-yl)-[1,2,4]triazolo[4,3-a]pyridin-5-amine]	–	–	–	9.5	16	90.6
COc1cccc(F)c1CNc1ccc(-c2cncc(O)c2)c2nncn12 [Example 207, 5-(5-((2-fluoro-6-methoxybenzyl)amino)-[1,2,4]triazolo[4,3-a]pyridin-8-yl) pyridin-3-ol]	74.8	24.9	467	–	–	–
COc1ccccc1CNc1ccc(-c2ccc(CN3CC(F)(F)C3)cc2)c2nncn12 [Example 54, 8-(4-((3,3-difluoroazetidin-1-yl)methyl)phenyl)-N-(2-methoxybenzyl)-[1,2,4] triazolo[4,3-a]pyridin-5-amine]	–	–	–	56.6	19	230
COc1cccc(F)c1CNc1ccc(-c2cccnc2CF)c2nncn12 [Example 294, N-(2-fluoro-6-methoxybenzyl)-8-(2-(fluoromethyl)pyridin-3-yl)-[1,2,4] triazolo[4,3-a]pyridin-5-amine]	9.4	23.9	116	–	–	–
COc1cccc(F)c1CNc1ccc(-c2cnccc2F)c2nncn12 [Example 181, N-(2-fluoro-6-methoxybenzyl)-8-(4-fluoropyridin-3-yl)-[1,2,4]triazolo[4,3-a] pyridin-5-amine]	11.4	11.2	44.2	–	–	–
COc1cccc(F)c1CNc1ccc(-c2cnc(N3CCN(C(C)C)CC3)c(C(F)(F)F)c2)c2nncn12 [Example 108, N-(2-fluoro-6-methoxybenzyl)-8-(6-(4-isopropylpiperazin-1-yl)-5-(trifluoromethyl)pyridin-3-yl)-[1,2,4]triazolo[4,3-a] pyridin-5-amine]	–	–	–	191	70.8	350
COc1cc(F)cc(F)c1CNc1ccc(-c2ccnn2C)c2nncn12 [Example 296, N-(2,4-difluoro-6-methoxybenzyl)-8-(1-methyl-1H-pyrazol-5-yl)-[1,2,4] triazolo[4,3-a]pyridin-5-amine]	5.1	13	126	–	–	–
COc1cccc(F)c1CNc1ccc(-c2ccc(S(C)(=O)=O)cc2F)c2nncn12 [Example 177, 8-(2-fluoro-4-(methylsulfonyl)phenyl)-N-(2-fluoro-6-methoxybenzyl)-[1,2,4]triazolo[4,3-a]pyridin-5-amine]	12.3	15.8	32.3	–	–	–
COc1cccc(F)c1CNc1ccc(-c2cccnc2C)c2nncn12 [Example 2, N-(2-Fluoro-6-methoxybenzyl)-8-(2-methylpyridin-3-yl)-[1,2,4]triazolo[4,3-a]pyridin-5-amine]	–	–	–	8.7	10.9	18.8
COc1cccc(F)c1CNc1ccc(-c2cc(C)ncc2C(F)F)c2nncn12 [Example 337, 8-(5-(difluoromethyl)-2-methylpyridin-4-yl)-N-(2-fluoro-6-methoxybenzyl)-[1,2,4]triazolo[4,3-a]pyridin-5-amine]	43.1	23.8	166	–	–	–
COc1cccc(F)c1CNc1ccc(-c2cc(F)ncc2C)c2nncn12 [Example 279, 8-(2-fluoro-5-methylpyridin-4-yl)-N-(2-fluoro-6-methoxybenzyl)-[1,2,4] triazolo[4,3-a]pyridin-5-amine]	12.1	15.8	75.1	–	–	–
